In data set [1] the test system is Staphylococcus aureus. Kind of data set: Antimicrobial activity against Staphylococcus aureus ATCC 25923 assessed as inhibition of visible bacterial growth incubated for 18 hrs by broth-dilution method. The class given is functional.
For the next data set, the system named is Klebsiella pneumoniae. Kind of data set: Antimicrobial activity against Klebsiella pneumoniae ATCC 700603 assessed as inhibition of visible bacterial growth incubated for 18 hrs by broth microdilution method. The class given is functional. For orientation: Dilution methods test growth across graded concentrations, often in twofold steps.
The next data set concerns Pseudomonas aeruginosa. Kind of data set: Antimicrobial activity against Pseudomonas aeruginosa ATCC 27853 assessed as inhibition of visible bacterial growth incubated for 18 hrs by broth microdilution method. The class given is functional.
Another data set deals with Acinetobacter baumannii. Kind of data set: Antimicrobial activity against Acinetobacter baumannii ATCC 19606 assessed as inhibition of visible bacterial growth incubated for 18 hrs by broth microdilution method. Format: functional.
In another data set the test system is Escherichia coli. Kind of data set: Antimicrobial activity against Escherichia coli ATCC 25922 assessed as inhibition of visible bacterial growth incubated for 18 hrs by broth microdilution method. Format: functional.
Another data set has as its system Bacillus subtilis. Kind of data set: Antimicrobial activity against Bacillus subtilis ATCC 23857 assessed as inhibition of visible bacterial growth incubated for 18 hrs by broth microdilution method. The class given is functional.
The next data set has as its system Enterococcus faecalis. Kind of data set: Antimicrobial activity against Enterococcus faecalis ATCC 29212 assessed as inhibition of visible bacterial growth incubated for 18 hrs by broth-dilution method. The class given is functional.
Data set [2] deals with Staphylococcus epidermidis. Kind of data set: Antimicrobial activity against Staphylococcus epidermidis ATCC 12228 assessed as inhibition of visible bacterial growth incubated for 18 hrs by broth-dilution method. The class given is functional.
Data set [3] has as its system Staphylococcus aureus. Kind of data set: Antibacterial activity against methicillin-resistant Staphylococcus aureus ATCC 33591 infected in male Balb/c mouse model of full thickness skin wound assessed as reduction in number of inflammatory cells in skin at 1 mg/ml pre-infected with bacteria for 1 hrs followed by compound administration at 1,12 and 36 hrs post infection and measured after 10 days by H and E staining based analysis. Format: functional, organism-based. As to conditions: time 10.0 day.

Data set [4] concerns Staphylococcus aureus. Kind of data set: Antibacterial activity against methicillin-resistant Staphylococcus aureus ATCC 33591 infected in male Balb/c mouse model of full thickness skin wound assessed as reduction in bacterial load in skin at 1 mg/ml pre-infected with bacteria for 1 hrs followed by compound administration at 1,12 and 36 hrs post infection and measured 60 hrs post infection by agar plate method. The class given is functional, organism-based. As to conditions: time 59.0 hrs.

Data set [5] deals with Staphylococcus aureus. Kind of data set: Antimicrobial activity against methicillin-drug resistant Staphylococcus aureus ATCC 33591 assessed as concentration required to eliminate 90% bacteria incubated for 18 hrs by broth-microdilution method. Format: functional.
Data set [6] has as its system Staphylococcus aureus. Kind of data set: Antibacterial activity against methicillin-resistant Staphylococcus aureus ATCC 33591 infected in male Balb/c mouse model of full thickness skin wound assessed as reduction in bacteria in skin wound at 1 mg/ml pre-infected with bacteria for 1 hrs followed by compound administration at 1,12 and 36 hrs post infection and measured after 10 days by photographic analysis. Format: functional, organism-based. As to conditions: time 10.0 day.

Data set [7] relates to Staphylococcus aureus. Kind of data set: Antibacterial activity against methicillin-resistant Staphylococcus aureus ATCC 33591 infected in male Balb/c mouse model of full thickness skin wound assessed as decrease in cell necrosis in skin at 1 mg/ml pre-infected with bacteria for 1 hrs followed by compound administration at 1,12 and 36 hrs post infection and measured after 10 days by H and E staining based analysis. Format: functional, organism-based. The settings on record: time 10.0 day.

A short description of data set [8]: Hemolytic activity in mouse red blood cells assessed as hemolysis incubated for 1 hrs by absorbance based assay. Format: toxicity, cell-based. The settings on record: erythrocyte.

≈ marks a conversion by molar mass, not a printed value. Calls of active or inactive are those of the source. No cut-off for these calls is given here.

Usually MIC stands for the lowest concentration found to suppress growth. Broadly, the EC90 is the point of the concentration-response curve where the effect stands at 90%.

In the case of `CO[C@H]1/C=C/O[C@@]2(C)Oc3c(C)c(O)c4c(O)c(c(/C=N/N5CCN(C)CC5)c(O)c4c3C2=O)NC(=O)/C(C)=C\C=C\[C@H](C)[C@H](O)[C@@H](C)[C@@H](O)[C@@H](C)[C@H](OC(C)=O)[C@@H]1C` [RIFAMPIN], the MIC is < 1 µM in the data set on Staphylococcus aureus [1]; 32 µM (≈ 26.3 µg/mL) in the data set on Klebsiella pneumoniae; 32 µM (≈ 26.3 µg/mL) in the data set with Pseudomonas aeruginosa; 1 µM (≈ 0.823 µg/mL) in the data set with Acinetobacter baumannii; 8 µM (≈ 6.58 µg/mL) in the data set on Escherichia coli; < 1 µM in the data set with Bacillus subtilis. Also, the MIC (in the data set with Enterococcus faecalis; in [2]) was < 1 µM in each case.

Consider `CN[C@H](CC(C)C)C(=O)N[C@H]1C(=O)N[C@@H](CC(N)=O)C(=O)N[C@H]2C(=O)N[C@H]3C(=O)N[C@H](C(=O)N[C@H](C(=O)O)c4cc(O)cc(O)c4-c4cc3ccc4O)[C@H](O)c3ccc(c(Cl)c3)Oc3cc2cc(c3O[C@@H]2O[C@H](CO)[C@@H](O)[C@H](O)[C@H]2O[C@H]2C[C@](C)(N)[C@H](O)[C@H](C)O2)Oc2ccc(cc2Cl)[C@H]1O` [VANCOMYCIN], for which the MIC is < 1 µM in the data set on Staphylococcus aureus [1]; 128 µM (≈ 186 µg/mL) with Klebsiella pneumoniae; > 128 µM in the data set with Pseudomonas aeruginosa; 32 µM (≈ 46.4 µg/mL) in the data set on Acinetobacter baumannii; 128 µM (≈ 186 µg/mL) in the data set on Escherichia coli; < 1 µM in the data set on Bacillus subtilis. Moreover, the MIC is 2 µM (≈ 2.9 µg/mL) with Enterococcus faecalis and < 1 µM in [2]. The result in the data set on Staphylococcus aureus [3], in the data set with Staphylococcus aureus [4] and in the data set with Staphylococcus aureus [7] was Active. Moreover, the concentration for an effect of 90% (EC90) in the data set on Staphylococcus aureus [5] is 289 nM. The Activity result in the data set on Staphylococcus aureus [6] was “Active; Obvious Facilitation Of Wound Healing Not Observed”.

For the molecule H-RRWFRRWERWFE-NH2, the MIC in the data set on Staphylococcus aureus [1] worked out at 32 µM; in the data set on Klebsiella pneumoniae, 16 µM; in the data set with Pseudomonas aeruginosa, 16 µM; with Acinetobacter baumannii, 32 µM; in the data set with Escherichia coli, 16 µM; in the data set with Bacillus subtilis, 4 µM. For the same molecule, the MIC with Enterococcus faecalis turned out to be 128 µM; in data set [2], 8 µM. Besides, the HC10 in [8] was > 256 µM.

Consider H-RRWFRRWFRRWF-NH2, for which the MIC is 8 µM with Staphylococcus aureus [1]; 16 µM with Klebsiella pneumoniae; 16 µM in the data set on Pseudomonas aeruginosa; 16 µM in the data set with Acinetobacter baumannii; 16 µM with Escherichia coli; 8 µM in the data set with Bacillus subtilis. The MIC was 16 µM in the data set with Enterococcus faecalis and 8 µM in data set [2]. In [8], the HC10 was 16.44 µM.

In the case of H-RRWFRRWFRWFF-NH2, the MIC was 32 µM in the data set on Staphylococcus aureus [1]; 32 µM with Klebsiella pneumoniae; 16 µM with Pseudomonas aeruginosa; 32 µM in the data set with Acinetobacter baumannii; 32 µM in the data set with Escherichia coli; 2 µM with Bacillus subtilis. Also, the MIC with Enterococcus faecalis is 32 µM; in data set [2], 4 µM. Further, the Activity entry in data set [8] is “Toxic”.

“H-RRWFRRWGRWFG-NH2 [listing 1 of 2 here]”: the HC10 in data set [8] was > 256 µM.

As to “H-RRWFRRWGRWFG-NH2 [listing 2 of 2 here]”, the MIC was determined as 16 µM with Staphylococcus aureus [1]; 8 µM in the data set on Klebsiella pneumoniae; 2 µM with Pseudomonas aeruginosa; 32 µM with Acinetobacter baumannii; 8 µM with Escherichia coli; 2 µM in the data set on Bacillus subtilis. Besides, the figures for the MIC (in the data set with Enterococcus faecalis; in data set [2]) were 32 µM and 2 µM, respectively.

Regarding H-RRWFRRWIRWFI-NH2, the MIC in the data set on Staphylococcus aureus [1] came out at 16 µM; with Klebsiella pneumoniae it was 16 µM; in the data set with Pseudomonas aeruginosa, 16 µM; in the data set with Acinetobacter baumannii it was 16 µM; with Escherichia coli it was 16 µM; with Bacillus subtilis, 1 µM. The MIC with Enterococcus faecalis was 16 µM; in data set [2], 4 µM. The HC10 in data set [8] was 2.39 µM.

For the molecule H-RRWFRRWKRWFK-NH2, the MIC in the data set on Staphylococcus aureus [1] came out at 4 µM; in the data set on Klebsiella pneumoniae it was 4 µM; with Pseudomonas aeruginosa, 2 µM; in the data set with Acinetobacter baumannii it was 16 µM; in the data set on Escherichia coli, 8 µM; in the data set on Bacillus subtilis, 1 µM. The MIC with Enterococcus faecalis came to 32 µM; in [2] it was 2 µM. In addition, the HC10 in [8] was > 256 µM.

In the case of H-RRWFRRWLRWFL-NH2, the MIC was determined as 16 µM in the data set with Staphylococcus aureus [1]; 32 µM in the data set on Klebsiella pneumoniae; 16 µM with Pseudomonas aeruginosa; 32 µM with Acinetobacter baumannii; 16 µM in the data set on Escherichia coli; 2 µM in the data set with Bacillus subtilis. In addition, the MIC with Enterococcus faecalis worked out at 32 µM; in data set [2], 2 µM. Moreover, the Activity entry in data set [8] is “Toxic”.

As for H-RRWFRRWTRWFT-NH2, the MIC was found to be 8 µM in the data set with Staphylococcus aureus [1]; 8 µM in the data set with Klebsiella pneumoniae; 4 µM in the data set with Pseudomonas aeruginosa; 8 µM in the data set with Acinetobacter baumannii; 8 µM in the data set with Escherichia coli; 1 µM in the data set with Bacillus subtilis. Also, the MIC in the data set on Enterococcus faecalis was 16 µM; in [2], 2 µM. In addition, in data set [8], the HC10 is > 256 µM.

H-RRWFRRWWRWFW-NH2: the MIC with Staphylococcus aureus [1] stood at 32 µM; in the data set on Klebsiella pneumoniae, 64 µM; with Pseudomonas aeruginosa, 32 µM; in the data set on Acinetobacter baumannii it was 32 µM; in the data set with Escherichia coli it was 32 µM; with Bacillus subtilis, 4 µM. Also, the MIC in the data set on Enterococcus faecalis is 32 µM; in [2], 4 µM. In addition, the Activity result in [8] was “Toxic”.

The values are drawn from ChEMBL document CHEMBL6153094, “Rationally designed highly amphipathic antimicrobial peptides demonstrating superior bacterial selectivity relative to the corresponding α-helix peptide” (Eur J Med Chem, 2025).
